PubChem BioAssay AID330 (DTP/NCI, 2004)
Where “and” joins values, the source holds several entries; their conditions need not be identical. Identical values can stand only once. Inconclusive results and toxic doses are left out.

Tested on: P388 leukemia ip, CD2F1 mice, survival T/C
Experiment: NCI In Vivo Anticancer Drug Screen. Data for tumor model P388 Leukemia (intraperitoneal) in CD2F1 (CDF1) mice
Details: endpoint: median survival time, higher = longer survival
Summary of the method: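 Mice carrying the transplanted tumor received test compound or vehicle. Survival was recorded in each group, and the value is the treated-group measurement divided by that of the vehicle-treated control group.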

[1] = dose: 100.0 mg/kg/injection, schedule: Q01DX009 (ip), vehicle: saline with Tween-80
[2] = dose: 100.0 mg/kg/injection, schedule: Q04DX003 (ip), vehicle: saline with Tween-80
[3] = dose: 200.0 mg/kg/injection, schedule: Q04DX003 (ip), vehicle: saline with Tween-80
[4] = dose: 400.0 mg/kg/injection, schedule: Q04DX003 (ip), vehicle: saline with Tween-80
[5] = dose: 50.0 mg/kg/injection, schedule: Q01DX009 (ip), vehicle: Klucel (hydroxypropylcellulose) (HPC)
[6] = dose: 50.0 mg/kg/injection, schedule: Q01DX005 (ip), vehicle: saline with Tween-80
[7] = dose: 100.0 mg/kg/injection, schedule: Q01DX005 (ip), vehicle: saline with Tween-80
[8] = dose: 200.0 mg/kg/injection, schedule: Q01DX005 (ip), vehicle: saline with Tween-80

## Cc1ccc(NS(=O)(=O)c2ccc([N+](=O)[O-])cc2)cc1
[1]
  T/C: 100 % of control
[2]
  T/C: 100 % of control
[3]
  T/C: 100 % of control
dose: 400.0 mg/kg/injection, schedule: Q01DX009 (ip), vehicle: saline with Tween-80
  T/C: 90 % of control
[4]
  T/C: 100 % of control

## CCOC(=O)c1nnn(-c2cncc(-n3nnc(C(=O)OCC)c3C(=O)OCC)n2)c1C(=O)OCC
dose: 60.0 mg/kg/injection, schedule: Q01DX005 (ip), vehicle: Klucel (hydroxypropylcellulose) (HPC)
  T/C: 98 % of control
dose: 120.0 mg/kg/injection, schedule: Q01DX005 (ip), vehicle: Klucel (hydroxypropylcellulose) (HPC)
  T/C: 102 % of control
dose: 240.0 mg/kg/injection, schedule: Q01DX005 (ip), vehicle: Klucel (hydroxypropylcellulose) (HPC)
  T/C: 103 % of control

## CCc1nnc2ccncn12
[2]
  T/C: 97 % of control
[3]
  T/C: 90 % of control
[4]
  T/C: 102 % of control

## O=C([CH-]C(=O)C(F)(F)F)c1ccccc1.O=C([CH-]C(=O)C(F)(F)F)c1ccccc1.O=C([CH-]C(=O)C(F)(F)F)c1ccccc1.O=C([CH-]C(=O)C(F)(F)F)c1ccccc1.[Eu+3].c1ccncc1
[5]
  T/C: 113 % of control
dose: 100.0 mg/kg/injection, schedule: Q01DX009 (ip), vehicle: Klucel (hydroxypropylcellulose) (HPC)
  T/C: 104 % of control

## CCOC(=O)C1(C)C(=O)CC(c2ccccc2)CC1c1ccccc1 (centres undefined)
[6]
  T/C: 100 % of control
[7]
  T/C: 96 % of control
[8]
  T/C: 99 % of control

## CCOC(=O)C1C(C(=O)c2ccccc2)C12C(=O)N(C)c1ccccc12 (centres undefined)
dose: 12.5 mg/kg/injection, schedule: Q04DX002 (ip), vehicle: saline with Tween-80
  T/C: 103 % of control
dose: 25.0 mg/kg/injection, schedule: Q04DX002 (ip), vehicle: saline with Tween-80
  T/C: 107 % of control
dose: 50.0 mg/kg/injection, schedule: Q04DX002 (ip), vehicle: saline with Tween-80
  T/C: 103 % of control

## CC1CN(CCC#N)CC(C)O1 (centres undefined)
dose: 25.0 mg/kg/injection, schedule: Q01DX009 (ip), vehicle: saline
  T/C: 101 % of control
dose: 50.0 mg/kg/injection, schedule: Q01DX009 (ip), vehicle: saline
  T/C: 101 % of control
dose: 100.0 mg/kg/injection, schedule: Q01DX009 (ip), vehicle: saline
  T/C: 101 % of control
dose: 200.0 mg/kg/injection, schedule: Q01DX009 (ip), vehicle: saline
  T/C: 104 % of control

## CC(=O)OCC1OC(NC(=S)NCC(=O)c2ccccc2)C(OC(C)=O)C(OC(C)=O)C1OC(C)=O (centres undefined)
[6]
  T/C: 99 % of control
[7]
  T/C: 99 % of control
[8]
  T/C: 98 % of control

## Nc1nc(N)c2nc(Sc3ccc(Cl)cc3)c(=O)[nH]c2n1
dose: 50.0 mg/kg/injection, schedule: Q01DX009 (ip), vehicle: saline with Tween-80
  T/C: 97 % of control
[1]
  T/C: 91 % of control
dose: 200.0 mg/kg/injection, schedule: Q01DX009 (ip), vehicle: saline with Tween-80
  T/C: 105 % of control

## CCC1(CC(=O)O)OCCc2c1[nH]c1c(C)c(Cl)ccc21 (centres undefined)
dose: 50.0 mg/kg/injection, schedule: Q01DX001 (ip), vehicle: Klucel (hydroxypropylcellulose) (HPC)
  T/C: 101 % of control
dose: 100.0 mg/kg/injection, schedule: Q01DX001 (ip), vehicle: Klucel (hydroxypropylcellulose) (HPC)
  T/C: 101 % of control
dose: 200.0 mg/kg/injection, schedule: Q01DX001 (ip), vehicle: Klucel (hydroxypropylcellulose) (HPC)
  T/C: 100 % of control

## CCCCOP(O)(=S)OCCCC.[Tb]
dose: 100.0 mg/kg/injection, schedule: Q04DX002 (ip), vehicle: saline with Tween-80
  T/C: 100 % of control
dose: 200.0 mg/kg/injection, schedule: Q04DX002 (ip), vehicle: saline with Tween-80
  T/C: 96 % of control
dose: 400.0 mg/kg/injection, schedule: Q04DX002 (ip), vehicle: saline with Tween-80
  T/C: 95 % of control

## C[n+]1ccc(Nc2ccc(NC(=O)c3ccc(Nc4cc[n+](C)c5ccc([N+](=O)[O-])cc45)cc3)cc2)cc1
dose: 2.0 mg/kg/injection, schedule: Q01DX009 (ip), vehicle: saline
  T/C: 164 % of control
dose: 4.0 mg/kg/injection, schedule: Q01DX009 (ip), vehicle: saline
  T/C: 158 % of control and 178 % of control
dose: 8.0 mg/kg/injection, schedule: Q01DX009 (ip), vehicle: saline
  T/C: 177 % of control and 195 % of control
dose: 16.0 mg/kg/injection, schedule: Q01DX009 (ip), vehicle: saline
  T/C: 226 % of control and 257 % of control
dose: 32.0 mg/kg/injection, schedule: Q01DX009 (ip), vehicle: saline
  T/C: 281 % of control and 288 % of control
dose: 64.0 mg/kg/injection, schedule: Q01DX009 (ip), vehicle: saline
  T/C: 121 % of control

## CCCCOS(=O)(=O)c1ccc([N+](C)(C)C)cc1
dose: 12.5 mg/kg/injection, schedule: Q01DX009 (ip), vehicle: Klucel (hydroxypropylcellulose) (HPC)
  T/C: 100 % of control
dose: 25.0 mg/kg/injection, schedule: Q01DX009 (ip), vehicle: Klucel (hydroxypropylcellulose) (HPC)
  T/C: 102 % of control
[5]
  T/C: 104 % of control
